This note sets out measurements from ChEMBL document CHEMBL5226342, “Novel Reversible-Binding PET Ligands for Imaging Monoacylglycerol Lipase Based on the Piperazinyl Azetidine Scaffold” (J Med Chem, 2021).

Active and inactive are the calls of the source. The rule behind the calls is not given here.

Series [1] has as its target T1, Neutral cholesterol ester hydrolase 1 (Mus musculus) (UniProt Q8BLF1).
T1 sequence (whole entry): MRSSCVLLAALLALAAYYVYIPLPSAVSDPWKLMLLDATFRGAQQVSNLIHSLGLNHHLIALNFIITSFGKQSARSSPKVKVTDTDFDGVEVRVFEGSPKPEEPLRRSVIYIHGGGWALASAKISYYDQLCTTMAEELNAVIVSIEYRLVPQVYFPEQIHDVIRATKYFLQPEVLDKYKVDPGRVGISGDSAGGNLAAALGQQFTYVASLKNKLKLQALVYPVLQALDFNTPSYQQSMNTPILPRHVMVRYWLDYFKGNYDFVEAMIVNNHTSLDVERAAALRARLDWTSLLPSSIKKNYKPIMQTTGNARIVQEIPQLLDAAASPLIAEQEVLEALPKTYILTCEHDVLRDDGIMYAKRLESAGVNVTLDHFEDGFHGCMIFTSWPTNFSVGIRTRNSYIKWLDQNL
Kind of series: Displacement of FP-rhodamine from KIAA1363 in mouse brain membrane fraction preincubated for 30 mins followed by FP-rhodhamine addition for 10 mins by Activity-Based Protein Profiling analysis. It is filed as cell membranes. As to conditions: time 40.0 min.

Series [2] deals with T2, Lysophosphatidylserine lipase ABHD12 (Mus musculus) (UniProt Q99LR1).
T2 sequence (whole entry): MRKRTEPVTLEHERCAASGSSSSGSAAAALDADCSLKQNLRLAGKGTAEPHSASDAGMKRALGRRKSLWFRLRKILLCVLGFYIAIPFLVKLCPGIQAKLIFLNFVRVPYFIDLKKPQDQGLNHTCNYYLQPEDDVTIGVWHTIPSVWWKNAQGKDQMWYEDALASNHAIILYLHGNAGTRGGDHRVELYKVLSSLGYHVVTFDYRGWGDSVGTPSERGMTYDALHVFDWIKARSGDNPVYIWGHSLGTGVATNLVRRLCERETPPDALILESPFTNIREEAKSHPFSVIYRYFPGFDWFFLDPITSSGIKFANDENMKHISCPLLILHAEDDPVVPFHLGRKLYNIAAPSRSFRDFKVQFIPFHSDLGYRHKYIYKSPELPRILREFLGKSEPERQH
The series is described as follows: Displacement of FP-rhodamine from ABHD12 in mouse brain membrane fraction preincubated for 30 mins followed by FP-rhodhamine addition for 10 mins by Activity-Based Protein Profiling analysis. The format is cell membranes. As to conditions: time 40.0 min.

In series [3] the target is T3, Fatty-acid amide hydrolase 1 (Mus musculus) (UniProt O08914).
T3 sequence (whole entry): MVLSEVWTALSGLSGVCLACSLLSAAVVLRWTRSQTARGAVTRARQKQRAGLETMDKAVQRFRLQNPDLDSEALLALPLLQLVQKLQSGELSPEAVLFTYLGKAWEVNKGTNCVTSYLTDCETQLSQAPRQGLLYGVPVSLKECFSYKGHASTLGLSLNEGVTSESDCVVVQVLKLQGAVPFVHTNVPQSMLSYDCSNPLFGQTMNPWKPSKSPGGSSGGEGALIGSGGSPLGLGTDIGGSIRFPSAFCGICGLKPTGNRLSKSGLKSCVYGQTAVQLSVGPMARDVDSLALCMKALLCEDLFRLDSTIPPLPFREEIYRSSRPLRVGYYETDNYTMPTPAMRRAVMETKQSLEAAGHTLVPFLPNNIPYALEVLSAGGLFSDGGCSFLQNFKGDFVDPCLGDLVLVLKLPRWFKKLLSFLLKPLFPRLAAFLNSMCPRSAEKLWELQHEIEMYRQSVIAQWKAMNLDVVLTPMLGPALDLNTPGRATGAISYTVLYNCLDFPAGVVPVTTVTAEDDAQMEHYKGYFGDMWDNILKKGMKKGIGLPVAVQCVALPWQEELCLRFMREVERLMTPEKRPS
Kind of series: Displacement of FP-rhodamine from FAAH in mouse brain membrane fraction preincubated for 30 mins followed by FP-rhodhamine addition for 10 mins by Activity-Based Protein Profiling analysis. As to conditions: time 40.0 min. The format is cell membranes.

Series [4] has as its target T4, Monoacylglycerol lipase ABHD6 (Mus musculus) (UniProt Q8R2Y0).
T4 sequence (whole entry): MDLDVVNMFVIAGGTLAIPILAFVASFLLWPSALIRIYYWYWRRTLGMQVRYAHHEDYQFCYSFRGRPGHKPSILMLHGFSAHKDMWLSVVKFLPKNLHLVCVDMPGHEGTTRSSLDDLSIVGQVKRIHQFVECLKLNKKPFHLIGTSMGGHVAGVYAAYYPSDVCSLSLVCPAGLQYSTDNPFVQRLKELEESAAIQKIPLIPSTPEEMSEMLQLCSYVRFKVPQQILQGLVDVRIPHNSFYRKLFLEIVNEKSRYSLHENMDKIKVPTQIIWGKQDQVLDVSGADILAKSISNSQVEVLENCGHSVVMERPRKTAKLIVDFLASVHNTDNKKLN
Kind of series: Displacement of FP-rhodamine from ABHD6 in mouse brain membrane fraction preincubated for 30 mins followed by FP-rhodhamine addition for 10 mins by Activity-Based Protein Profiling analysis. As to conditions: time 40.0 min. It is filed as cell membranes.

A short description of series [5]: Lipophilicity, logD of the compound by shake flask method. It is filed as physicochemical. The following applies: octanol/water.
Series [6] deals with CaV1.2 (voltage-dependent L-type calcium channel subunit alpha-1C) (Homo sapiens, UniProt Q13936). Kind of series: Inhibition of human CaV1.2 at 10 uM.
For a further series, the target named is hERG (KCNH2) (Homo sapiens, UniProt Q12809). The series is described as follows: Inhibition of human ERG at 10 uM. The format is toxicity.
For series [7], the target named is T5, Monoglyceride lipase (Rattus norvegicus) (UniProt Q8R431).
T5 sequence (whole entry): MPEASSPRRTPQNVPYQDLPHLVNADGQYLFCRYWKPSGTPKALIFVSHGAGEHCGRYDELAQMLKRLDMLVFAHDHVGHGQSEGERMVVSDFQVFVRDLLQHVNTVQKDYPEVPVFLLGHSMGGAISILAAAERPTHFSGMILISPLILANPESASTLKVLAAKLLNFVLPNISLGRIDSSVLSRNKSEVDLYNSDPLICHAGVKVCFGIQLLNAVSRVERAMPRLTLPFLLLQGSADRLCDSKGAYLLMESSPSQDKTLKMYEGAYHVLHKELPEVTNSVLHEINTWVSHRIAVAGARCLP
Kind of series: Binding affinity to MAGL in rat hippocampus incubated for 1 hr in presence of MAGL inhibitor, (1-(4-fluorophenyl)-1H-indol-5-yl)(3-(4-(pyrimidin-2-yl)piperazin-1-yl)azetidin-1-yl)methanone by autoradiography. The format is tissue-based. As to conditions: tested as the 18F-labelled form.

The target of series [8] is T5, Monoglyceride lipase (Rattus norvegicus). The series is described as follows: Binding affinity to MAGL in rat cortex incubated for 1 hr in presence of MAGL inhibitor, (1-(4-fluorophenyl)-1H-indol-5-yl)(3-(4-(pyrimidin-2-yl)piperazin-1-yl)azetidin-1-yl)methanone by autoradiography. The format is tissue-based. As to conditions: tested as the 18F-labelled form.
For series [9] the target is unchanged. Kind of series: Binding affinity to MAGL in rat thalamus incubated for 1 hr in presence of MAGL inhibitor, (1-(4-fluorophenyl)-1H-indol-5-yl)(3-(4-(pyrimidin-2-yl)piperazin-1-yl)azetidin-1-yl)methanone by autoradiography. The format is tissue-based. The following applies: tested as the 18F-labelled form.
The target is the same in series [10]. Kind of series: Binding affinity to MAGL in rat striatum incubated for 1 hr in presence of MAGL inhibitor, (1-(4-fluorophenyl)-1H-indol-5-yl)(3-(4-(pyrimidin-2-yl)piperazin-1-yl)azetidin-1-yl)methanone by autoradiography. The format is tissue-based. As to conditions: tested as the 18F-labelled form.
For series [11] the target is unchanged. The series is described as follows: Binding affinity to MAGL in rat cerebellum incubated for 1 hr in presence of MAGL inhibitor, (1-(4-fluorophenyl)-1H-indol-5-yl)(3-(4-(pyrimidin-2-yl)piperazin-1-yl)azetidin-1-yl)methanone by autoradiography. The format is tissue-based. The following applies: tested as the 18F-labelled form.
For series [12], the target named is T6, Monoglyceride lipase (Mus musculus) (UniProt O35678).
T6 sequence (whole entry): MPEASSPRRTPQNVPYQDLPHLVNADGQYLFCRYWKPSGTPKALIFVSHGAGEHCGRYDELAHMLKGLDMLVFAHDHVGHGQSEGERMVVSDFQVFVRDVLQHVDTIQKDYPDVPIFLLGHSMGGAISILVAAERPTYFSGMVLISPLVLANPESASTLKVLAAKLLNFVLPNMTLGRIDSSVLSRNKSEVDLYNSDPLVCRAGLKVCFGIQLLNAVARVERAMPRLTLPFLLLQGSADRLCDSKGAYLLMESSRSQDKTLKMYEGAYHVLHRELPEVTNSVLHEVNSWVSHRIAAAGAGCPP
As to conditions: Brain, Membrane, dose 50.0 nM, time 35-210 min.

hERG (KCNH2), sequence (Q12809 whole entry): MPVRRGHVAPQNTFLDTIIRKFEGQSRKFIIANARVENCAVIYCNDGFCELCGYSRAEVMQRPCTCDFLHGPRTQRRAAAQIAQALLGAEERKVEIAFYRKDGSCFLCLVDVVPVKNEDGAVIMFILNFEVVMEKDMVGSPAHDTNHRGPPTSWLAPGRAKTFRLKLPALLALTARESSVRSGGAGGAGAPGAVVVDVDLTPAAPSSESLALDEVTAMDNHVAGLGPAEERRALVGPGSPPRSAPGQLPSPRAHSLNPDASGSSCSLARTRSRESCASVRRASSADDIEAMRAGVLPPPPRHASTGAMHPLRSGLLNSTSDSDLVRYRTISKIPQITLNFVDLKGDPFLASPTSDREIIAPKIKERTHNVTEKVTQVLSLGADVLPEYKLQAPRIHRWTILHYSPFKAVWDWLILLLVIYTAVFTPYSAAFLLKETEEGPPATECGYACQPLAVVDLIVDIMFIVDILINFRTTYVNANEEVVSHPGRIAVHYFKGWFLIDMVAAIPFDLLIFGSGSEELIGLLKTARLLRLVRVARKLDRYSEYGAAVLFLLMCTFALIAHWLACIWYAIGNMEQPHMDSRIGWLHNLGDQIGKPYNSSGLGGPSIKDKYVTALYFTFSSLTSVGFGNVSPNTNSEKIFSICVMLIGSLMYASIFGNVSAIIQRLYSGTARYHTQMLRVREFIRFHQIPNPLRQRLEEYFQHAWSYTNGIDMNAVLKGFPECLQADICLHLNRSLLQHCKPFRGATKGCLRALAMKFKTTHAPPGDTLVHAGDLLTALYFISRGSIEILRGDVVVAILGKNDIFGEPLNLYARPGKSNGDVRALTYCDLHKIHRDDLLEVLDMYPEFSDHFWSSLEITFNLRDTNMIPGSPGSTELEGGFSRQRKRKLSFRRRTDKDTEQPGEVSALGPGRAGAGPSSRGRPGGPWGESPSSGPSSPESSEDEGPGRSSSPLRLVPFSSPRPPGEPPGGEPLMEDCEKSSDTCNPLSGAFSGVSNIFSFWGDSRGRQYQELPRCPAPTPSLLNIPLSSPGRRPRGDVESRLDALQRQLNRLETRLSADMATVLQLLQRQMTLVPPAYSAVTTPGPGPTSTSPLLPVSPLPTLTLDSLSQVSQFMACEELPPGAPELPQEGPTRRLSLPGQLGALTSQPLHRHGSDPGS
CaV1.2 (voltage-dependent L-type calcium channel subunit alpha-1C), sequence (Q13936 whole entry): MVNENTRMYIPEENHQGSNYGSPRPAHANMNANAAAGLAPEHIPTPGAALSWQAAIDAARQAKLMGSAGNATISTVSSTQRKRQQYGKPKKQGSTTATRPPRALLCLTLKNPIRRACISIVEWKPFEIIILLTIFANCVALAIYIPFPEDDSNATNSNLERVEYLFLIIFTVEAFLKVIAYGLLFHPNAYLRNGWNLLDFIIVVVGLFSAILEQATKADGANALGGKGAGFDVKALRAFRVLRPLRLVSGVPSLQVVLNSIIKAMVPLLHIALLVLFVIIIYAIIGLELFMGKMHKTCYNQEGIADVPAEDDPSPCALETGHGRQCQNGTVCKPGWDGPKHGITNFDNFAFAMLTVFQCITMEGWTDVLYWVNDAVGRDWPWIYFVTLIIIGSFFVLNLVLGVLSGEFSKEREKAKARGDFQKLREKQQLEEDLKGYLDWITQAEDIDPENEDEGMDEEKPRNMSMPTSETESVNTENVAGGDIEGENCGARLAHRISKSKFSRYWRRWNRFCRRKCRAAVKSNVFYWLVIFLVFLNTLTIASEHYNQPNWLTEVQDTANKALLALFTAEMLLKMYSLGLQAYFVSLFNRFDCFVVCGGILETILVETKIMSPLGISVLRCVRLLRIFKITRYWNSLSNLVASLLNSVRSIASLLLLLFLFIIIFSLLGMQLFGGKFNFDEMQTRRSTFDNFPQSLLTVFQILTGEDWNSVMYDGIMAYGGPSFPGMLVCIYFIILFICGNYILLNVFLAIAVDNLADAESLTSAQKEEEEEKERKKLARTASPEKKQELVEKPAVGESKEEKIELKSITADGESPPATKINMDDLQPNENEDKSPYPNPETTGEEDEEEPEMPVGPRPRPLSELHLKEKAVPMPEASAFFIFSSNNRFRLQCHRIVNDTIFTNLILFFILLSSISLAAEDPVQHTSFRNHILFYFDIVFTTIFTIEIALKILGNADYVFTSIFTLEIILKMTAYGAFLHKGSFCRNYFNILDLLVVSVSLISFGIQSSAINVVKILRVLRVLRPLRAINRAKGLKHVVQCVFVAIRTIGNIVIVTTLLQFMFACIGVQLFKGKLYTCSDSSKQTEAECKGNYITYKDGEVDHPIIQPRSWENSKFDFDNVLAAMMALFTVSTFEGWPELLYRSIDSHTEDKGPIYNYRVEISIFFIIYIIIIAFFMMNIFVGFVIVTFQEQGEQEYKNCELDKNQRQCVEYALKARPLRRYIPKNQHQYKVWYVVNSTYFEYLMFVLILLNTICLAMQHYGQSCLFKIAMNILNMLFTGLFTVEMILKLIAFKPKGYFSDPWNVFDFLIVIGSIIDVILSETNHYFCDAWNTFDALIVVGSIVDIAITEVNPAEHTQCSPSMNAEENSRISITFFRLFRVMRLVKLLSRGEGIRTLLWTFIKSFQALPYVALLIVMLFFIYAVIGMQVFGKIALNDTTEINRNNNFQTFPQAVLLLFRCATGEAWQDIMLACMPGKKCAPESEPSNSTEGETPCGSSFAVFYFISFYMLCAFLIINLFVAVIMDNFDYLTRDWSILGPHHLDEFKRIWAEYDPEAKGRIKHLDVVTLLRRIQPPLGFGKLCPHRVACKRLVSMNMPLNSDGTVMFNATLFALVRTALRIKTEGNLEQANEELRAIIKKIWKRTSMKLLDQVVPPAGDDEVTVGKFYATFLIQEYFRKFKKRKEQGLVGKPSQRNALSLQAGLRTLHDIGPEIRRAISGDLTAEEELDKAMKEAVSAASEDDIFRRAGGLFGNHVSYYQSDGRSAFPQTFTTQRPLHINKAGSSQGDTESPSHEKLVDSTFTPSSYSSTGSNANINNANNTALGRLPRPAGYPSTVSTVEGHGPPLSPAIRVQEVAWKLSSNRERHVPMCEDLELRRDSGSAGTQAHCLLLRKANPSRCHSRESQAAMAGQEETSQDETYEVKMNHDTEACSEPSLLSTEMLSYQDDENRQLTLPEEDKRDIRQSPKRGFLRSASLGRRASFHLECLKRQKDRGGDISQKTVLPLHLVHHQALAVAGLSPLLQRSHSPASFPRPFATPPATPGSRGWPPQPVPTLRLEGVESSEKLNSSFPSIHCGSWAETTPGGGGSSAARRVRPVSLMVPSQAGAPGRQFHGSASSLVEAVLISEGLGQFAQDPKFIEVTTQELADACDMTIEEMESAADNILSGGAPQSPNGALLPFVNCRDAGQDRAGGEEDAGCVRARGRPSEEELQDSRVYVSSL

Usually inhibition stands for the drop in the measured response relative to a control, in per cent. As usually defined, the logD is lipophilicity at a set pH, counting ionised and neutral species. Lower therefore signals a more hydrophilic compound. For `O=C(c1ccc2c(ccn2-c2ccc(F)cc2)c1)N1CC(N2CCN(C(=O)c3nccs3)CC2)C1`, the inhibition result in [1], in [2], in series [3] and in series [4] was “inactive” each time. This molecule registered a logD in series [5] of 3.28.
`O=C(c1ccc2c(ccn2-c2ccc(F)cc2)c1)N1CC(N2CCN(c3ncccn3)CC2)C1`: the inhibition entry in [1], in series [2], in series [3] and in [4] was “inactive” throughout. Besides, the inhibition at 10 µM (in series [6]; on hERG (KCNH2)) was below 50% throughout. This molecule also returned a pH-dependent lipophilicity (logD) in series [5] of 3.68. The outcome in [7], in [8], in [9], in series [10] and in series [11] was inactive. For the same molecule, the inhibition result in series [12] is “Active”.
